Assay results: patent publication US20030119022A1, “Recognition and cleavage at the DNA major groove” (priority 2001, published 2003)
Values belong to the compound of their own block, whether it stands above or below them.

Legend:
[1] = tested on: 5′-^32p end-labeled 514 bps restriction fragment from pBR322 DNA (Ecor I/ Rsa I); test: Reductive cleavage of 32P-end labeled DNA restriction fragment, PAGE autoradiogram; format: biochemical
[2] = NaBH4 reductive activation, hydrolytic cleavage
[3] = NaBH4 reductive activation, piperidine cleavage

melting point: 194 to 196 °C
SMILES: CCOC(=O)c1[nH]c2c(c1COC(C)=O)C(=O)C(OC)=CC2=O

SMILES: COC1=CC(=O)c2[nH]c(COC(C)=O)c(COC(C)=O)c2C1=O [Compound 1d, 2,3-Diacetoxymethyl-5-methoxyindol-4,7-dione]
Cleavage Pattern [1, 2]: recognition occurs only at 3′-GGA-5′ with phosphate alkylation and cleavage occurring largely at the center G base
Cleavage Pattern [1, 3]: GT (5′
melting point: 179 to 181 °C

SMILES: COC1=CC(=O)c2[nH]c3c(c2C1=O)CCC3OC(C)=O (stereo not drawn) [Compound 2b, 3-Acetoxy-7-methoxy-1,2,3,4-tetrahydrocyclopent[b]indole-5,8-dione]
Cleavage Pattern [1, 2]: No Significant
Cleavage Pattern [1, 3]: G & T of 3′-GT-
melting point: 173 to 175 °C

SMILES: COS(=O)(=O)OC [DMS, reference compound]
Cleavage Pattern ([1]; Piperidine cleavage, no reductive activation (sequencing reference lane)): G & A

SMILES: CC(=O)OCc1[nH]c2c(c1C)C(=O)C(N1CC1)=CC2=O [reference compound]
Cleavage Pattern [1, 2]: Weak Cleavage
Cleavage Pattern [1, 3]: Some G & A

SMILES: CC(=O)OC1CCc2c1[nH]c1c2C(=O)C=C(N2CC2)C1=O (stereo not drawn) [reference compound]
Cleavage Pattern [1, 2]: No Significant Cleavage
Cleavage Pattern [1, 3]: G & T of 3′-GT- 5′
